Legend:
[1] = test system: C57BL/6 mice, CCl4 liver fibrosis model; assay: CCl4-induced liver fibrosis mouse model, collagen staining of liver sections; format: in vivo; conditions: 17 mg/kg C1632 after each CCl4 injection
Method: C57BL/6 mice were divided into normal control group, CCl4 group and CCl4+C1632 group, with 7 mice in each group. The mice in the CCl4+C1632 group were injected with 17 mg/kg C1632 for treatment after each injection of CCl4. At the end of the experiment, the mice were sacrificed, and the obtained livers were fixed with 4% paraformaldehyde, dehydrated, embedded and sliced.
1. The collagen fibers in the tissue were stained blue through Masson staining, and the muscle fibers and cytoplasm were stained red through Masson staining. The sections were routinely deparaffinized to water and stained with Weigert's hematoxylin for 5 to 10 minutes. The sections were differentiated with 1% hydrochloric alcohol differentiation solution and washed with water. The sections was returned blue by using Masson bluing solution and washed with water for 1 min. The sections were stained with Ponceau fuchsin staining solution for 5 to 10 min, soaked in 1% glacial acetic acid for a moment, then washed with the phosphomolybdic acid solution for 1 to 2 min. The sections were stained in the aniline blue staining solution for 1 to 2 min after washed with 1% glacial acetic acid for 1 min. The sections were rinsed with 1% glacial acetic acid in three consecutive cylinders for about 8 s, then successively dehydrated by three consecutive cylinders of absolute ethanol for about 5 s, 10 s, and 30 s, and dehydrated by two cylinders of n-butyl alcohol for 30 s and 2 min in turn, and finally permeabilized by two cylinders of xylene for 5 min each time, and sealed with neutral gum.
2. To further verify the effect of C1632 on liver fibrosis, the above tissue sections were subjected to Van Gieson (VG) staining, which was a mature connective tissue staining method to distinguish collagen fibers from muscle fibers. Paraffin sections were deparaffinized into water, and then placed into VG staining solution prepared with acid fuchsin and picric acid, stained for 1 min, quickly washed with water, and quickly dehydrated in three cylinders of absolute ethanol. The sections were placed into xylene for permeabilizing, then sealed with neutral gum and photographed under a microscope.
The sections deparaffinized to water were oxidized with Gordon-Sweets oxidizer for 5 min. After washing with water, the sections were bleached with oxalic acid solution for 1 to 2 min. After washing with distilled water, the sections were mordanted with ferric ammonium sulfate solution for 5 min, then rinsed briefly with water. Gordon-Sweets silver ammonia solution was dropwise added for staining for 3 min. The sections were briefly washed with distilled water, reduced with Gordon-Sweets reducing agent for 1 min and rinsed under running water for 10 min. The nucleus was stained with nuclear fast red staining solution for 5-10 min. […]

[2] = test system: CKD mice (C57BL/6 male); assay: Purine (AP) feed-induced chronic kidney disease (CKD) mouse model; format: in vivo; conditions: 68 mg/kg twice a week
Text: The protocol for constructing a chronic kidney disease (CKD) mouse model in this example was as follows: 8-week-old C57BL/6 male mice were fed with a feed containing 2‰ purine for 1 month, then, fed with a feedcontaining 1.5‰ purine for 3 months. There were at least 10 mice in each group.
(§1) The mice were divided into three groups: (1) normal group; (2) AP+Saline group; (3) AP+C1632 group, 10 mice in each group. The CKD mice in group (3) were fed with a feed containing 2‰ AP for 1 month and then treated with C1632. C1632 was administered twice a week at a dose of 68 mg/kg of body weight each time.
as §1, with “(2) AP+saline” for “(2) AP+Saline”, “group […]” for “group (3)”, “time. During the subsequent 83 days of treatment, the survival of the mice was counted.” for “time.”
The mice were divided into three groups: (1) normal group; (2) AP+saline group; (3) AP+C1632 group, 10 mice in each group. The CKD mice in group (2) and group (3) were fed with a feed containing 2‰ AP for 1 month and then treated with C1632. C1632 was administered twice a week at a dose of 68 mg/kg of body weight each time. After 3 months, the mice were sacrificed, and the kidneys were removed for Masson staining.

`CC(=O)N(C)c1cccc(-c2ccc3nnc(C)n3n2)c1` [C1632] was tested, and the “Collagen fibers in liver tissue, Masson staining” value ([1]; twice a week for 6 weeks, FIG. 5) was “can inhibit the expression of collagen fibers induced by CCl4”, the “Collagen fiber levels in liver tissue, Van Gieson (VG) staining” value ([1]; FIG. 6) was “significantly reduces collagen fiber levels” and the “Reticular fibers in liver tissue, reticular fiber staining” value ([1]; FIG. 7) was “can inhibit the expression of reticular fibers induced by CCl4”. For the same molecule, the “Type I collagen production in liver, Sirius red staining” value ([1]; polarized light, FIG. 8) was “can significantly inhibit the production of type I collagen”, the “Mortality of CKD model mice” value ([2]; 83 days of treatment, FIG. 13) was “significantly reduces the mortality” and the “Collagen fibers in the kidney, Masson staining (kidney fibrosis)” value ([2]; after 3 months, FIG. 14) was “significantly inhibits the level of collagen fibers”. The “Weight loss in CKD mice” value ([2]; vs control (saline) mice, FIG. 12) was “significantly inhibits weight loss”.

Reference: patent US20240277708A1, “Use of [1,2,4] Triazolo [4,3-B] Pyridazine Derivative For Preventing and Treating Senescence and Senescence-Related Diseases” (The Eighth Affiliated Hospital, Sun Yat-Sen University, priority 2023, published 2024)
